In ChEMBL document CHEMBL1135837, “Approach to dual-acting platelet activating factor (PAF) receptor antagonist/thromboxane synthase inhibitor (TxSI) based on the link of PAF antagonists and TxSIs” (Bioorg Med Chem Lett, 2002) one finds IC50 and ED50 data, which are given here for 18 compounds.

Common to all, as to type: functional
The species entered for one assay is Oryctolagus cuniculus. Put plainly: In vitro inhibition of platelet activating factor induced platelet aggregation in rabbit platelet rich plasma.
Another assay concerns the target T1, Thromboxane-A synthase (Homo sapiens, UniProt P24557).
T1 sequence (P24557 whole entry): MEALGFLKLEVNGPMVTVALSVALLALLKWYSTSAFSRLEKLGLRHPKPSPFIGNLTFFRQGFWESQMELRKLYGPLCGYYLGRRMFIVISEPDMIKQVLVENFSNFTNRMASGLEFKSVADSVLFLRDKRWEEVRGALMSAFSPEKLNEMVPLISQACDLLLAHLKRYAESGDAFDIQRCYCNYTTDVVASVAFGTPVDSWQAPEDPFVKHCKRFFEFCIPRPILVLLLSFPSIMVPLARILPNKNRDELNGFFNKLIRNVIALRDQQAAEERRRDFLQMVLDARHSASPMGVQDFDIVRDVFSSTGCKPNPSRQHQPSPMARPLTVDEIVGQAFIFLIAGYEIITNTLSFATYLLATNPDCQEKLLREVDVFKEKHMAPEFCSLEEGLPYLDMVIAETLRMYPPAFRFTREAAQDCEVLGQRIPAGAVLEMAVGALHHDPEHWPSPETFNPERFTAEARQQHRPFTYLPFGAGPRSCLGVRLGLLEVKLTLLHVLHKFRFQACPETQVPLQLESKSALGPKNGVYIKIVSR
Briefly: In vitro inhibition of TXB2 production by incubating prostaglandin H2 with human platelet microsomes.

For a further assay, the species on record is Mus musculus. Put plainly: Ex vivo antagonistic activity towards platelet activating factor was assessed in mouse by using PAF-induced death assay.

In general, IC50 refers to the midpoint of a concentration-inhibition curve. High values mean lower potency, low ones higher potency. `CCOC(=O)CCCCO/N=C(/c1cccnc1)c1ccccc1C(=O)N1CCN(C(=O)C2CSC(c3cccnc3)N2)CC1` (stereo not given): the IC50 in the assay listed under Oryctolagus cuniculus is 560 nM; against Thromboxane-A synthase it was greater than 1000 nM. As for `CCOC(=O)CCCCO/N=C(\c1cccnc1)c1cccc(CN2CCN(C(=O)C3CSC(c4cccnc4)N3)CC2)c1` (stereo not given), the results for the IC50 in the assay filed under Oryctolagus cuniculus and on Thromboxane-A synthase were 200 nM and 88 nM, respectively. `CCOC(=O)CCCCO/N=C(\c1ccc(NC(=O)C2CSC(c3cccnc3)N2)cc1)c1cccnc1` (stereo not given): the 50% inhibitory concentration (IC50) in the assay filed under Oryctolagus cuniculus is greater than 1000 nM; against Thromboxane-A synthase it was 21 nM.

`CCOC(=O)CCCCO/N=C(\c1cccnc1)c1cccc(NC(=O)c2ccn3c2CSC3c2cccnc2)c1` (stereo not given): the values for the IC50 in the assay listed under Oryctolagus cuniculus and on Thromboxane-A synthase were 450 nM and 1.2 nM, respectively. For `CCOC(=O)CCCCO/N=C(/c1cccnc1)c1cccc(CNS(=O)(=O)c2ccc(Cn3c(C)nc4cnccc43)cc2)c1`, in that order: 68 nM and 4.7 nM. `CCOC(=O)CCCCO/N=C(/c1ccccc1)c1cccnc1` gave a half-maximal inhibitory concentration (IC50) against Thromboxane-A synthase of 1 nM. This counts as single-digit nanomolar. For the compound `Cc1nc2cnccc2n1Cc1ccc(S(=O)(=O)NCc2cccc(/C(=N\OCCCCC(=O)O)c3cccnc3)c2)cc1`, the half-inhibitory concentration (IC50) in the assay listed under Oryctolagus cuniculus was greater than 1000 nM; against Thromboxane-A synthase it was 1.8 nM. On the same counts, the results for `CCOC(=O)CCCCO/N=C(/c1cccnc1)c1cccc(C(=O)N2CCN(C(=O)C3CSC(c4cccnc4)N3)CC2)c1` (stereo not given) are 480 nM and 52 nM. For `CCOC(=O)CCCCO/N=C(\c1cccnc1)c1cccc(CNS(=O)(=O)c2ccc(Cn3c(C)nc4cnccc43)cc2)c1`, in that order: 68 nM and 5.8 nM. Take `CCOC(=O)CCCCO/N=C(\c1ccc(NC(=O)c2ccn3c2CSC3c2cccnc2)cc1)c1cccnc1` (stereo not given): the results for the IC50 in the assay listed under Oryctolagus cuniculus and against Thromboxane-A synthase were 550 nM and 3.6 nM, respectively.

Take `CCOC(=O)C1=C(c2ccc(-n3c(C)nc4cnccc43)cc2)NC(C)=C(C(=O)Nc2ccccn2)C1c1ccccc1Cl` (stereo not given): in the assay listed under Oryctolagus cuniculus, it took 29 nM to reach half-maximal inhibition (IC50). Usually ED50 stands for the midpoint of the dose-response relation. `CCOC(=O)CCCCO/N=C(/c1cccnc1)c1cccc(C(=O)N2CCc3c(sc4c3C(c3ccccc3Cl)=NC(C)c3nnc(C)n3-4)C2)c1` (stereo not given) had a median effective dose (ED50) in the assay listed under Mus musculus of 2.3 mg/kg. The figures for the concentration for half-maximal inhibition (IC50) in the assay listed under Oryctolagus cuniculus and against Thromboxane-A synthase were 60 nM and 65 nM, respectively. For the compound `CCOC(=O)CCCCO/N=C(\c1ccc(CN2CCN(C(=O)C3CSC(c4cccnc4)N3)CC2)cc1)c1cccnc1` (stereo not given), the IC50 turned out to be 280 nM in the assay filed under Oryctolagus cuniculus and 72 nM against Thromboxane-A synthase. For `O=C(O)CCCCO/N=C(\c1cccnc1)c1cccc(CN2CCN(C(=O)C3CSC(c4cccnc4)N3)CC2)c1` (stereo not given), in that order: greater than 1000 nM and 12 nM. With `CCOC(=O)CCCCO/N=C(\c1ccc(C(=O)N2CCc3c(sc4c3C(c3ccccc3Cl)=NC(C)c3nnc(C)n3-4)C2)cc1)c1cccnc1` (stereo not given), the median effective dose (ED50) in the assay filed under Mus musculus turned out to be 0.5 mg/kg. Further, the IC50 in the assay listed under Oryctolagus cuniculus was determined as 100 nM; at Thromboxane-A synthase, 72 nM.

Take `CCOC(=O)CCCCO/N=C(\c1cccnc1)c1cccc(NC(=O)C2CSC(c3cccnc3)N2)c1` (stereo not given): the IC50 in the assay listed under Oryctolagus cuniculus is greater than 1000 nM; against Thromboxane-A synthase, 21 nM. For `CCOC(=O)CCCCO/N=C(\c1ccc(C(=O)N2CCN(C(=O)C3CSC(c4cccnc4)N3)CC2)cc1)c1cccnc1` (stereo not given), in that order: 610 nM and 44 nM. In turn, `Cc1nnc2n1-c1sc3c(c1C(c1ccccc1Cl)=N[C@H]2C)CCN(C(=O)C1CC1)C3` (racemic) had a 50% inhibitory concentration (IC50) in the assay listed under Oryctolagus cuniculus of 360 nM.
